We go through two compounds from article PMC4269767, “Ligand Binding Modulates the Structural Dynamics and Compactness of the Major Birch Pollen Allergen” (Biophysical Journal, 2014).

Counter-ions that a name gives are not always drawn.

One may read the Kd as the free concentration of one partner at which half of the binding sites on the other are occupied at equilibrium, for simple one-to-one binding. Read a low Kd as higher affinity.

For assay [1], the target named is T1, Bet v 1.0101 (Betula pendula, UniProt P15494).
T1 construct: gene BETVIA
T1 sequence (P15494 2-160): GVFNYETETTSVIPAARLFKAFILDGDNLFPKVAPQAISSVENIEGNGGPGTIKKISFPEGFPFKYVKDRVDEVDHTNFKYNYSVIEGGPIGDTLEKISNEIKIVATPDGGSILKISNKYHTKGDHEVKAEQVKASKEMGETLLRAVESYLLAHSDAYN
The assay is described as follows: crystal structure (soaked); 1H-15N HSQC NMR titration; relaxation dispersion. It is filed as binding.

For assay [2], the target named is T1, Bet v 1.0101. The assay is described as follows: 1H-15N HSQC NMR titration; PFG diffusion NMR; relaxation dispersion. Type of assay: binding.

At Bet v 1.0101 [1], `CCCCCCCCCCCCOS(=O)(=O)O` [SDS, sodium dodecyl sulfate] gave a Kd of 7 µM.

In turn, `CCCCC(CC)CCC(CC(C)C)OS(=O)(=O)O` (centres unmarked) [STS, sodium tetradecyl sulfate] had a Kd at Bet v 1.0101 [2] of 1 µM.
